Assay: Physical stability under accelerated ageing conditions, re-analysis by XRPD and digital imaging
Assay type: physicochemical
Conditions: 40° C. and 75% RH, 48 hours
Protocol: AAC: Accelerated aging conditions (48 hours at 40° C. and 75% RH)
Physical stability of all samples was studied by exposing all solids to accelerated ageing conditions (40° C./75% RH for 48 hours) followed by re-analysis by XRPD and digital imaging. After exposure to accelerated ageing conditions, all solids were re-classified on the basis of their new XRPD patterns. The assignment of solid forms was primarily based on the XRPD analysis.
Subsequently, all solids were placed in a climate chamber at 40° C. and 75% RH for […] and again analyzed by XRPD and digital imaging.
Compound 1 free base was solid dosed in 1.8 mL scale experimental vials. The coformer was added at a ratio of 1:1.1 (Compound 1:coformer). The solvent and a stirring bar were added to the vials. […] After the solids were separated from the liquids, the solids were analyzed wet by XRPD and digital imaging. […] The solids obtained were then analyzed by XRPD and digital imaging. Subsequently, the solids were incubated in a climate chamber at 40° C. and 75% RH for 48 hours and again analyzed by XRPD and digital imaging.
In these experiments 4 coformers and 6 solvents were tested (see Table 10). […] All obtained solids were then analyzed by XRPD and digital imaging. Subsequently, the solids were placed in a climate chamber at 40° C. and 75% RH for 3 days after which they were analyzed by XRPD and digital imaging again. […]

Physical stability at accelerated aging conditions (solid form by XRPD): stable
Structure (SMILES): COC1CCC(N2C(=O)CNc3ncc(-c4ccc(C(C)(C)O)nc4)nc32)CC1.O=C(O)C=CC(=O)O (stereo not shown) [Form 1]
